Measurements reported in US20200024278A1, “COMPOSITION COMPRISING ANTIBIOTIC COMPOUND AND AN HETEROCYCLIC COMPOUND AND THEIR USE IN PREVENTING OR TREATING BACTERIAL INFECTIONS” (MUTABILIS, priority 2016, published 2020).

What was measured:
Assay in all cases: MIC, broth microdilution (CLSI), substance alone or ATB combined with compound at 4 or 8 μg/mL
ECO 190317 = assay type: cell-based, E. coli; conditions: ECO 190317
Protocol: (§1) Compounds of the present invention were assessed against genotyped bacterial strains alone or in combination with an antibacterial. In the assays, MICs of said compounds or combination of antibiotics with fixed concentrations of said compounds (4 or 8 μg/mL) were determined by the broth microdilution method according to the Clinical Laboratory Standards Institute (CLSI-M7-A7). Briefly, compounds alone according to the invention were prepared in DMSO and spotted (2 μL each) on sterile polystyrene plates (Corning, 3788). Combinations of compounds and antibiotics dilutions were prepared in DMSO and spotted (1 μL each) on sterile polystyrene plates (Corning, 3788). Log phase bacterial suspensions were adjusted to a final density of 5·10^5 CFU/mL in cation-adjusted Mueller-Hinton broth (ca-MHB; Becton-Dickinson and Company) and added to each well (98 μL). Assays including Fosfomycin were supplemented with 25 μg/ml of Glucose-6-phosphate. Microplates were incubated for 16-20 h at 35° C. in ambient air. The MIC of the compounds was defined as the lowest concentration of said compounds that prevented bacterial growth as read by visual inspection. The MIC of ATB at each compound concentration was defined as the lowest concentration of ATB that prevented bacterial growth as read by visual inspection.

ECO UFR39 = assay type: cell-based, E. coli; conditions: ECO UFR39
Protocol: as §1

KPN 6299 = assay type: cell-based, K. pneumoniae
Protocol: as §1

KPN BAA-1898 = assay type: cell-based, K. pneumoniae; conditions: KPN BAA-1898
Protocol: as §1

KPN UFR42 = assay type: cell-based, K. pneumoniae; conditions: KPN UFR42
Protocol: as §1

ECL P99 = assay type: cell-based, E. cloacae; conditions: ECL P99
Protocol: as §1

PAE 105250 = assay type: cell-based, P. aeruginosa; conditions: PAE 105250
Protocol: as §1

PAE UFR48 = assay type: cell-based, P. aeruginosa; conditions: PAE UFR48
Protocol: as §1

PAE UFR90 = assay type: cell-based, P. aeruginosa; conditions: PAE UFR90
Protocol: as §1

SAU 29213 = assay type: cell-based, S. aureus; conditions: SAU 29213
Protocol: as §1

SPN 49619 = assay type: cell-based, S. pneumoniae; conditions: SPN 49619
Protocol: as §1

CO/N=C(\C(=O)N[C@@H]1C(=O)N2C(C(=O)[O-])=C(C[n+]3cccc4c3CCC4)CS[C@H]12)c1csc(N)n1 [CPO]
MIC ATB alone (ECO 190317; antibiotic alone): >256 µg/mL | MIC ATB combined with Example 1 @8 μg/ml (ECO 190317; with Example 1 @8 μg/ml): <0.031 µg/mL | MIC ATB combined with Example 1 @8 μg/ml (ECO 190317; with Example 1 at 8 μg/ml): <0.031 µg/mL | MIC ATB combined with Example 7 @8 μgml (ECO 190317; with Example 7 at 8 μg/ml): <0.031 µg/mL | MIC ATB combined with Example 9 @4 μg/ml (ECO 190317; with Example 9 @4 μg/ml): <0.031 µg/mL | MIC ATB combined with Example 9 @4 μg/ml (ECO 190317; with Example 9 at 4 μg/ml): <0.031 µg/mL | MIC ATB combined with Example 11 @8 μg/ml (ECO 190317; with Example 11 at 8 μg/ml): <0.031 µg/mL | MIC ATB combined with Example 12 @8 μg/ml (ECO 190317; with Example 12 at 8 μg/ml): <0.031 µg/mL | MIC ATB combined with Example 13 @8 μg/ml (ECO 190317; with Example 13 at 8 μg/ml): <0.031 µg/mL | MIC ATB combined with Example 14 @8 μg/ml (ECO 190317; with Example 14 at 8 μg/ml): <0.031 µg/mL | MIC ATB combined with Example 15 @4 μgml (ECO 190317; with Example 15 at 4 μg/ml): <=0.031 μg/mL | MIC ATB combined with Example 16 @4 μg/ml (ECO 190317; with Example 16 at 4 μg/ml): <0.031 µg/mL | MIC ATB alone (ECO UFR39; CPO alone): >32 µg/mL | MIC ATB alone (ECO UFR39; antibiotic alone): >32 µg/mL | MIC ATB combined with Example 1 @8 μg/ml (ECO UFR39; with Example 1 @8 μg/ml): <0.031 µg/mL | MIC ATB combined with Example 9 @4 μg/ml (ECO UFR39; with Example 9 @4 μg/ml): <0.031 µg/mL | MIC ATB alone (KPN 6299; antibiotic alone): >256 µg/mL | MIC ATB combined with Example 1 @8 μg/ml (KPN 6299; with Example 1 @8 μg/ml): 0.5 µg/mL | MIC ATB combined with Example 1 @8 μg/ml (KPN 6299; with Example 1 at 8 μg/ml): 0.5 µg/mL | MIC ATB combined with Example 7 @8 μgml (KPN 6299; with Example 7 at 8 μg/ml): 0.063 µg/mL | MIC ATB combined with Example 9 @4 μg/ml (KPN 6299; with Example 9 @4 μg/ml): <=0.031 μg/mL | MIC ATB combined with Example 9 @4 μg/ml (KPN 6299; with Example 9 at 4 μg/ml): <=0.031 μg/mL | MIC ATB combined with Example 11 @8 μg/ml (KPN 6299; with Example 11 at 8 μg/ml): <0.031 µg/mL | MIC ATB combined with Example 12 @8 μg/ml (KPN 6299; with Example 12 at 8 μg/ml): <0.031 µg/mL | MIC ATB combined with Example 13 @8 μg/ml (KPN 6299; with Example 13 at 8 μg/ml): 0.125 µg/mL | MIC ATB combined with Example 14 @8 μg/ml (KPN 6299; with Example 14 at 8 μg/ml): <0.031 µg/mL | MIC ATB combined with Example 15 @4 μgml (KPN 6299; with Example 15 at 4 μg/ml): <=0.031 μg/mL | MIC ATB combined with Example 16 @4 μg/ml (KPN 6299; with Example 16 at 4 μg/ml): <0.031 µg/mL | MIC ATB alone (KPN BAA-1898; antibiotic alone): >256 µg/mL | MIC ATB combined with Example 1 @8 μg/ml (KPN BAA-1898; with Example 1 @8 μg/ml): 0.125 µg/mL | MIC ATB combined with Example 1 @8 μg/ml (KPN BAA-1898; with Example 1 at 8 μg/ml): 0.125 µg/mL | MIC ATB combined with Example 7 @8 μgml (KPN BAA-1898; with Example 7 at 8 μg/ml): <0.031 µg/mL | MIC ATB combined with Example 9 @4 μg/ml (KPN BAA-1898; with Example 9 @4 μg/ml): <0.031 µg/mL | MIC ATB combined with Example 9 @4 μg/ml (KPN BAA-1898; with Example 9 at 4 μg/ml): <0.031 µg/mL | MIC ATB combined with Example 11 @8 μg/ml (KPN BAA-1898; with Example 11 at 8 μg/ml): <=0.031 μg/mL | MIC ATB combined with Example 12 @8 μg/ml (KPN BAA-1898; with Example 12 at 8 μg/ml): <0.031 µg/mL | MIC ATB combined with Example 13 @8 μg/ml (KPN BAA-1898; with Example 13 at 8 μg/ml): 0.5 µg/mL | MIC ATB combined with Example 14 @8 μg/ml (KPN BAA-1898; with Example 14 at 8 μg/ml): <0.031 µg/mL | MIC ATB combined with Example 15 @4 μgml (KPN BAA-1898; with Example 15 at 4 μg/ml): <=0.031 μg/mL | MIC ATB combined with Example 16 @4 μg/ml (KPN BAA-1898; with Example 16 at 4 μg/ml): <0.031 µg/mL | MIC ATB alone (KPN UFR42; CPO alone): >32 µg/mL | MIC ATB alone (KPN UFR42; antibiotic alone): >32 µg/mL | MIC ATB combined with Example 1 @8 μg/ml (KPN UFR42; with Example 1 @8 μg/ml): 16 µg/mL | MIC ATB combined with Example 9 @4 μg/ml (KPN UFR42; with Example 9 @4 μg/ml): <0.031 µg/mL | MIC ATB alone (ECL P99; antibiotic alone): 16 µg/mL | MIC ATB combined with Example 1 @8 μg/ml (ECL P99; with Example 1 @8 μg/ml): <0.031 µg/mL | MIC ATB combined with Example 1 @8 μg/ml (ECL P99; with Example 1 at 8 μg/ml): <0.031 µg/mL | MIC ATB combined with Example 7 @8 μgml (ECL P99; with Example 7 at 8 μg/ml): <=0.031 μg/mL | MIC ATB combined with Example 9 @4 μg/ml (ECL P99; with Example 9 @4 μg/ml): <0.031 µg/mL | MIC ATB combined with Example 9 @4 μg/ml (ECL P99; with Example 9 at 4 μg/ml): <0.031 µg/mL | MIC ATB combined with Example 11 @8 μg/ml (ECL P99; with Example 11 at 8 μg/ml): <0.031 µg/mL | MIC ATB combined with Example 12 @8 μg/ml (ECL P99; with Example 12 at 8 μg/ml): <0.031 µg/mL | MIC ATB combined with Example 13 @8 μg/ml (ECL P99; with Example 13 at 8 μg/ml): 0.063 µg/mL | MIC ATB combined with Example 14 @8 μg/ml (ECL P99; with Example 14 at 8 μg/ml): <0.031 µg/mL | MIC ATB combined with Example 15 @4 μgml (ECL P99; with Example 15 at 4 μg/ml): <0.031 µg/mL | MIC ATB combined with Example 16 @4 μg/ml (ECL P99; with Example 16 at 4 μg/ml): <0.031 µg/mL | MIC ATB alone (PAE 105250; CPO alone): 32 µg/mL | MIC ATB alone (PAE 105250; antibiotic alone): 32 µg/mL | MIC ATB combined with Example 1 @8 μg/ml (PAE 105250; with Example 1 @8 μg/ml): <0.031 µg/mL | MIC ATB combined with Example 9 @4 μg/ml (PAE 105250; with Example 9 @4 μg/ml): 32 µg/mL | MIC ATB alone (PAE UFR48; CPO alone): >32 µg/mL | MIC ATB alone (PAE UFR48; antibiotic alone): >32 µg/mL | MIC ATB combined with Example 1 @8 μg/ml (PAE UFR48; with Example 1 @8 μg/ml): <0.031 µg/mL | MIC ATB combined with Example 9 @4 μg/ml (PAE UFR48; with Example 9 @4 μg/ml): >32 µg/mL | MIC ATB alone (PAE UFR90; CPO alone): >32 µg/mL | MIC ATB alone (PAE UFR90; antibiotic alone): >32 µg/mL | MIC ATB combined with Example 1 @8 μg/ml (PAE UFR90; with Example 1 @8 μg/ml): <0.031 µg/mL | MIC ATB combined with Example 9 @4 μg/ml (PAE UFR90; with Example 9 @4 μg/ml): 8 µg/mL | MIC ATB alone (SAU 29213; CPO alone): 1 µg/mL | MIC ATB alone (SAU 29213; antibiotic alone): 1 µg/mL | MIC ATB combined with Example 1 @8 μg/ml (SAU 29213; with Example 1 @8 μg/ml): 1 µg/mL | MIC ATB combined with Example 9 @4 μg/ml (SAU 29213; with Example 9 @4 μg/ml): <0.031 µg/mL | MIC ATB alone (SPN 49619; CPO alone): <=0.031 μg/mL | MIC ATB alone (SPN 49619; antibiotic alone): <=0.031 μg/mL | MIC ATB combined with Example 1 @8 μg/ml (SPN 49619; with Example 1 @8 μg/ml): <=0.031 μg/mL | MIC ATB combined with Example 9 @4 μg/ml (SPN 49619; with Example 9 @4 μg/ml): <=0.031 μg/mL
